Measurements taken from PubChem BioAssay AID1259407 (Chemical Carcinogenesis Research Information System (CCRIS), 2018).
Calls of active or inactive are those of the source. The rule behind the calls is not given here.

Test system: CCRIS mutagenicity, Ames/micronucleus/aberration tests
Experiment: CCRIS mutagenicity studies
[1] = Test System: AMES SALMONELLA TYPHIMURIUM, Strain/Indicator: TA98, Metabolic Activation: NONE, Method: PREINCUBATION
[2] = Test System: AMES SALMONELLA TYPHIMURIUM, Strain/Indicator: TA100, Metabolic Activation: NONE, Method: PREINCUBATION
[3] = Test System: AMES SALMONELLA TYPHIMURIUM, Strain/Indicator: TA100, Metabolic Activation: NONE, Method: STANDARD PLATE

Structure (SMILES): C[N+](=O)[O-]
- mutagenic call (Test System: AMES SALMONELLA TYPHIMURIUM, Strain/Indicator: TA98, Metabolic Activation: HAMSTER, LIVER, S-9, AROCLOR 1254 (10%), Method: PREINCUBATION): inactive; negative
- mutagenic call (Test System: AMES SALMONELLA TYPHIMURIUM, Strain/Indicator: TA98, Metabolic Activation: HAMSTER, LIVER, S-9, AROCLOR 1254, FLAVIN MONONUCLEOTIDE, Method: PREINCUBATION): inactive; negative
- mutagenic call [1]: inactive; negative
- mutagenic call (Test System: AMES SALMONELLA TYPHIMURIUM, Strain/Indicator: TA98, Metabolic Activation: RAT, LIVER, S-9, AROCLOR 1254 (10%), Method: PREINCUBATION): inactive; negative
- mutagenic call (Test System: AMES SALMONELLA TYPHIMURIUM, Strain/Indicator: TA98, Metabolic Activation: RAT, LIVER, S-9, KANECHLOR 500, Method: PREINCUBATION): inactive; negative
- mutagenic call (Test System: AMES SALMONELLA TYPHIMURIUM, Strain/Indicator: TA100, Metabolic Activation: HAMSTER, LIVER, S-9, AROCLOR 1254 (10%), Method: PREINCUBATION): inactive; negative
- mutagenic call (Test System: AMES SALMONELLA TYPHIMURIUM, Strain/Indicator: TA100, Metabolic Activation: HAMSTER, LIVER, S-9, AROCLOR 1254, FLAVIN MONONUCLEOTIDE, Method: PREINCUBATION): inactive; negative
- mutagenic call [2]: inactive; negative
- mutagenic call (Test System: AMES SALMONELLA TYPHIMURIUM, Strain/Indicator: TA100, Metabolic Activation: RAT, LIVER, S-9, AROCLOR 1254 (10%), Method: PREINCUBATION): inactive; negative
- mutagenic call (Test System: AMES SALMONELLA TYPHIMURIUM, Strain/Indicator: TA100, Metabolic Activation: RAT, LIVER, S-9, KANECHLOR 500, Method: PREINCUBATION): inactive; negative
- mutagenic call (Test System: AMES SALMONELLA TYPHIMURIUM, Strain/Indicator: TA1535, Metabolic Activation: HAMSTER, LIVER, S-9, AROCLOR 1254 (10%), Method: PREINCUBATION): inactive; negative
- mutagenic call (Test System: AMES SALMONELLA TYPHIMURIUM, Strain/Indicator: TA1535, Metabolic Activation: NONE, Method: PREINCUBATION): inactive; negative
- mutagenic call (Test System: AMES SALMONELLA TYPHIMURIUM, Strain/Indicator: TA1535, Metabolic Activation: RAT, LIVER, S-9, AROCLOR 1254 (10%), Method: PREINCUBATION): inactive; negative
- mutagenic call (Test System: AMES SALMONELLA TYPHIMURIUM, Strain/Indicator: TA1537, Metabolic Activation: HAMSTER, LIVER, S-9, AROCLOR 1254 (10%), Method: PREINCUBATION): inactive; negative
- mutagenic call (Test System: AMES SALMONELLA TYPHIMURIUM, Strain/Indicator: TA1537, Metabolic Activation: NONE, Method: PREINCUBATION): inactive; negative
- mutagenic call (Test System: AMES SALMONELLA TYPHIMURIUM, Strain/Indicator: TA1537, Metabolic Activation: RAT, LIVER, S-9, AROCLOR 1254 (10%), Method: PREINCUBATION): inactive; negative
- mutagenic call (Test System: E. COLI, Strain/Indicator: WP2 UVRA (PKM101), Metabolic Activation: NONE, Method: PREINCUBATION): inactive; negative
- mutagenic call (Test System: E. COLI, Strain/Indicator: WP2 UVRA (PKM101), Metabolic Activation: RAT, LIVER, S-9, KANECHLOR 500, Method: PREINCUBATION): inactive; negative
- mutagenic call (Test System: MOUSE LYMPHOMA, Strain/Indicator: L5178Y (TK+/TK-), Metabolic Activation: NONE, Method: SUSPENSION/PLATE): active; positive. reevaluation of results: equivocal
- mutagenic call (Test System: Mouse lymphoma, Strain/Indicator: L5178Y (tk+/tk-), Metabolic Activation: Rat, Liver, S-9, Aroclor 1254, Method: Suspension/plate): inactive; negative

Structure (SMILES): Cc1cccc(NO)c1C
- mutagenic call [2]: active; positive
- mutagenic call (Test System: AMES SALMONELLA TYPHIMURIUM, Strain/Indicator: TA100, Metabolic Activation: RAT, LIVER, S-9, PCB, Method: PREINCUBATION): active; positive

Structure (SMILES): OC1c2ccc3cccnc3c2C2OC2C1O (centres undefined)
- mutagenic call [3]: active; positive

Structure (SMILES): Fc1cnc2cccc(F)c2c1
- mutagenic call (Test System: AMES SALMONELLA TYPHIMURIUM, Strain/Indicator: TA100, Metabolic Activation: RAT, LIVER, S-9, PHENOBARBITAL AND 5,6-BENZOFLAVONE, Method: PREINCUBATION): inactive; negative

Structure (SMILES): COc1ccc(N)c(C)c1
- mutagenic call (Test System: AMES SALMONELLA TYPHIMURIUM, Strain/Indicator: TA98, Metabolic Activation: HAMSTER, LIVER, S-9, AROCLOR 1254 (30%), Method: PREINCUBATION): inactive; negative
- mutagenic call [1]: inactive; negative
- mutagenic call (Test System: AMES SALMONELLA TYPHIMURIUM, Strain/Indicator: TA98, Metabolic Activation: RAT, LIVER, S-9, AROCLOR 1254 (30%), Method: PREINCUBATION): inactive; negative
- mutagenic call (Test System: AMES SALMONELLA TYPHIMURIUM, Strain/Indicator: TA100, Metabolic Activation: HAMSTER, LIVER, S-9, AROCLOR 1254 (30%), Method: PREINCUBATION): active; positive
- mutagenic call [2]: inactive; negative
- mutagenic call (Test System: AMES SALMONELLA TYPHIMURIUM, Strain/Indicator: TA100, Metabolic Activation: RAT, LIVER, S-9, AROCLOR 1254 (30%), Method: PREINCUBATION): inactive; negative
- mutagenic call (Test System: E. COLI, Strain/Indicator: WP2 UVRA, Metabolic Activation: HAMSTER, LIVER, S-9, AROCLOR 1254, Method: STANDARD PLATE): inactive; negative
- mutagenic call (Test System: E. COLI, Strain/Indicator: WP2 UVRA, Metabolic Activation: HAMSTER, LIVER, S-9, Method: STANDARD PLATE): inactive; negative
- mutagenic call (Test System: E. COLI, Strain/Indicator: WP2 UVRA, Metabolic Activation: MOUSE, LIVER, S-9, AROCLOR 1254, Method: STANDARD PLATE): inactive; negative
- mutagenic call (Test System: E. COLI, Strain/Indicator: WP2 UVRA, Metabolic Activation: MOUSE, LIVER, S-9, Method: STANDARD PLATE): inactive; negative
- mutagenic call (Test System: E. COLI, Strain/Indicator: WP2 UVRA, Metabolic Activation: NONE, Method: STANDARD PLATE): inactive; negative
- mutagenic call (Test System: E. COLI, Strain/Indicator: WP2 UVRA, Metabolic Activation: RAT, LIVER, S-9, AROCLOR 1254, Method: STANDARD PLATE): inactive; negative
- mutagenic call (Test System: E. COLI, Strain/Indicator: WP2 UVRA, Metabolic Activation: RAT, LIVER, S-9, Method: STANDARD PLATE): inactive; negative

Structure (SMILES): O=C(O)c1ccc(N=Nc2ccc(O)c(C(=O)O)c2)cc1
- mutagenic call (Test System: AMES SALMONELLA TYPHIMURIUM, Strain/Indicator: TA98, Metabolic Activation: NONE, Method: STANDARD PLATE): inactive; negative
- mutagenic call (Test System: AMES SALMONELLA TYPHIMURIUM, Strain/Indicator: TA98, Metabolic Activation: RAT, LIVER, S-9, AROCLOR 1254, Method: STANDARD PLATE): inactive; negative
- mutagenic call [3]: inactive; negative
- mutagenic call (Test System: AMES SALMONELLA TYPHIMURIUM, Strain/Indicator: TA100, Metabolic Activation: RAT, LIVER, S-9, AROCLOR 1254, Method: STANDARD PLATE): inactive; negative
- mutagenic call (Test System: AMES SALMONELLA TYPHIMURIUM, Strain/Indicator: TA1535, Metabolic Activation: NONE, Method: STANDARD PLATE): inactive; negative
- mutagenic call (Test System: AMES SALMONELLA TYPHIMURIUM, Strain/Indicator: TA1535, Metabolic Activation: RAT, LIVER, S-9, AROCLOR 1254, Method: STANDARD PLATE): inactive; negative
- mutagenic call (Test System: AMES SALMONELLA TYPHIMURIUM, Strain/Indicator: TA1537, Metabolic Activation: NONE, Method: STANDARD PLATE): inactive; negative
- mutagenic call (Test System: AMES SALMONELLA TYPHIMURIUM, Strain/Indicator: TA1537, Metabolic Activation: RAT, LIVER, S-9, AROCLOR 1254, Method: STANDARD PLATE): inactive; negative
- mutagenic call (Test System: AMES SALMONELLA TYPHIMURIUM, Strain/Indicator: TA1538, Metabolic Activation: NONE, Method: STANDARD PLATE): inactive; negative
- mutagenic call (Test System: AMES SALMONELLA TYPHIMURIUM, Strain/Indicator: TA1538, Metabolic Activation: RAT, LIVER, S-9, AROCLOR 1254, Method: STANDARD PLATE): inactive; negative
- mutagenic call (Test System: CHINESE HAMSTER V-79, Strain/Indicator: V-79 (HGPRT)/8-AZAGUANINE, Metabolic Activation: NONE): inactive; negative
- mutagenic call (Test System: CHINESE HAMSTER V-79, Strain/Indicator: V-79 (HGPRT)/8-AZAGUANINE, Metabolic Activation: RAT, LIVER, S-9): inactive; negative
